Measurements published in US8828696B2, “Use of Penicillin G Procaine as a selective antimicrobial agent in the production of alcohol by fermentation” (Lallemand Specialites, Inc, priority 2008, dated 2014).

Tested on: Saccharomyces cerevisiae yeast
Test: Laboratory fermentation trial: formation of alcohol and lactic acid (HPLC)
Assay type: cell-based
Protocol: A study was conducted to determine the degree of impact of the fermentation antimicrobial Penicillin G Procaine and Penicillin G potassium during alcohol production by fermentation. The antimicrobial impact was inferred by conducting a series of fermentations and measuring if the above said antibiotics interfered with the cell growth and the fermentation function of Saccharomyces cerevisiae yeast used in the fermentation phase. This study provided analysis of what impact, if any, the Penicillin G Procaine or Penicillin G Potassium has on the yeast during lab scale fermentations, specifically BioFerm® XR yeast from North American Bioproducts Corporation (NABC). This study observed the ability of yeast to replicate and ferment a corn mash substrate with and without the presence of Penicillin G Procaine or Penicillin G Potassium. This study was set up in a series of fermentation vessels. All antibiotic concentrations were tested in triplicate. Cell counts were done on one flask for each treatment at 12, 24, 36 and 48 hours and testing of the fermentation reactions by HPLC was also performed at 12, 24, 36 and 48 hours. The experiment was set as follows: 3. Fermentations were set up using 31% solids corn mash using saccharifying enzymes and the following procedure: A. Yeast Conditioning: • 1. Add 2 g yeast to 10 ml sterile water for each 3 flasks to test, (14 g yeast to 70 ml water) into a sterile 250 ml flask and place in water bath set to 100° F. • 2. Incubate at 100° F. for 30 minutes with occasional mixing. • 3. Remove flasks from water bath and divide suspension between the all flasks for the trial. B. Fermentation Procedure • 1. To prepared mash, add the following. • a. Add 0.58 g urea/liter mash and mix. • b. Add 0.2 ml GA per liter and mix. • 2. Remove sample for background HPLC testing. • 3. Add antibiotic solution to labeled sterile 250 ml flasks. • 4. Add hydrated yeast suspension to mash and mix well. • 5. Add sterile stir bar to each flask and add about 150 ml mash into each 250 ml flask for a total of 21 flasks. • 6. Cover each flask with a gas trap in a sterilized stopper. • 7. Place in a 33° C. water bath with continuous mixing at 280 rpm at 75% power. • 8. Remove sample at 12 hr interval to perform cell count, viability and budding. • 9. Incubate sample up to 48 hours, enough time for complete fermentation • 10. Collect samples at the following times for cell counts and HPLC testing: 12 hours; 24 hours; 36 hours and 48 hours The proper functioning of the yeast is often attributed to the higher efficiency with which it can convert the sugars formed in a fermentation process to the desired alcohol. Also the number of yeast cells in a fermentation mix is an important factor as it will be entropically favored to convert the available sugar molecules to ethanol and carbon dioxide. The sugar in the fermentation mix apart from being converted to ethanol is also used by the yeast for its metabolism and growth and by the concerned “industry normal” Lactobacillus fermentum bacteria converting the sugar to lactic acid.

| Structure (SMILES) | % Lactic Acid (5 ppm, 12 hours) [%] | % wt EtOH (5 ppm, 12 hours) [% wt] | % Lactic Acid (5 ppm, 24 hours) [%] | % wt EtOH (5 ppm, 24 hours) [% wt] | % Lactic Acid (5 ppm, 36 hours) [%] | % wt EtOH (5 ppm, 36 hours) [% wt] | % Lactic Acid (5 ppm, 48 hours) [%] | % wt EtOH (5 ppm, 48 hours) [% wt] | % Lactic Acid (15 ppm, 12 hours) [%] | % wt EtOH (15 ppm, 12 hours) [% wt] | % Lactic Acid (15 ppm, 24 hours) [%] | % wt EtOH (15 ppm, 24 hours) [% wt] | % Lactic Acid (15 ppm, 36 hours) [%] | % wt EtOH (15 ppm, 36 hours) [% wt] | % Lactic Acid (15 ppm, 48 hours) [%] | % wt EtOH (15 ppm, 48 hours) [% wt] | % Lactic Acid (30 ppm, 12 hours) [%] | % wt EtOH (30 ppm, 12 hours) [% wt] | % Lactic Acid (30 ppm, 24 hours) [%] | % wt EtOH (30 ppm, 24 hours) [% wt] | further results |
| --- | --- | --- | --- | --- | --- | --- | --- | --- | --- | --- | --- | --- | --- | --- | --- | --- | --- | --- | --- | --- | --- |
| CC1(C)S[C@@H]2[C@H](NC(=O)Cc3ccccc3)C(=O)N2[C@H]1C(=O)[O-].[K+] [Penicillin G Potassium] | 0.083 | 6.16 | 0.100 | 9.12 | 0.108 | 11.12 | 0.104 | 11.89 | 0.081 | 6.05 | 0.100 | 9.15 | 0.105 | 11.05 | 0.100 | 11.92 | 0.082 | 6.07 | 0.096 | 9.13 | % Lactic Acid (30 ppm, 36 hours): 0.106%; % wt EtOH (30 ppm, 36 hours): 11.12 % wt; % Lactic Acid (30 ppm, 48 hours): 0.101%; % wt EtOH (30 ppm, 48 hours): 11.83 % wt |
| CC1(C)S[C@@H]2[C@H](NC(=O)Cc3ccccc3)C(=O)N2[C@H]1C(=O)O.CCN(CC)CCOC(=O)c1ccc(N)cc1 [Penicillin G Procaine] | 0.082 | 6.21 | 0.098 | 9.24 | 0.108 | 11.14 | 0.104 | 11.94 | 0.085 | 6.16 | 0.099 | 9.13 | 0.106 | 11.13 | 0.099 | 11.98 | 0.081 | 6.34 | 0.098 | 9.16 | % Lactic Acid (30 ppm, 36 hours): 0.103%; % wt EtOH (30 ppm, 36 hours): 11.18 % wt; % Lactic Acid (30 ppm, 48 hours): 0.100%; % wt EtOH (30 ppm, 48 hours): 11.91 % wt |
